Measurements from article PMC8286815 (Biochemical Journal, 2021).
pEC50: −log10 of the molar value. Where two headings read alike, the source gives them in different places.

Tests used:
[1] = tested on: influenza A viruses in A549 cells; parameters: method as in PMID 26711748; conditions: different strains, read-out: EC50 suppression of replication of influenza A viruses; cited from earlier work
[2] = tested on: influenza infection; conditions: treated mice; cited from earlier work
[3] = biological target: T1, SARS-CoV-2 RdRp (nsp12/nsp7/nsp8) (Severe acute respiratory syndrome coronavirus 2, UniProt P0DTD1); assay: FRET-based strand displacement assay (RdRp activity); type: biochemical; conditions: 100 nM RNA substrate, 300 µM of each NTP
T1 construct: added initiator Met before nsp12 (N); made in house; host or cells: Sf9 insect cells (Spodoptera frugiperda), baculovirus

[4] = tested on: SARS-CoV-2 in Vero E6 cells; assay: Viral inhibition assay (N protein immunofluorescence); type: cell-based; conditions: for pEC50: read-out: EC50 antiviral activity against SARS-CoV-2
[5] = biological target: T1, SARS-CoV-2 RdRp (nsp12/nsp7/nsp8); assay: Gel-based polymerisation (primer-extension) assay; type: biochemical; conditions: compound at 50 µM, 30-min reaction, 300 nM RdRp, native PAGE
[6] = tested on: SARS-CoV-2 in Vero E6 cells; parameters: method as in Zeng et al. [46]; conditions: same protocol, ref Zeng et al. [46], read-out: EC50 against SARS-CoV-2; cited from earlier work
[7] = tested on: Vero E6 cells; assay: Cell viability in the viral inhibition assay (DRAQ7 staining); conditions: DRAQ7 area, concentrations tested up to 300 µM
[8] = IC50 (µM) + 0.01% Triton X-100, 150 nM RdRp, presence of 0.01% Triton X-100
[9] = IC50 (µM) No detergent, 150 nM RdRp, absence of Triton X-100
[10] = Severe acute respiratory syndrome coronavirus 2, Vero C1008, Vero E6 cells, MOI 0.5 PFU/cell, 22 h, area of viral plaques by N protein staining
[11] = Severe acute respiratory syndrome coronavirus 2, Vero C1008, 22 h

| SMILES | IC50 [3, 8] [µM] | IC50 [3, 9] [µM] | pEC50 [4, 10] | Inhibition of RNA duplex formation [5] | pEC50 [4, 11] | other results |
| --- | --- | --- | --- | --- | --- | --- |
| CC1=NN(c2ccc(C(=O)O)cc2)C(=O)C1=Cc1ccc(-c2cc(C)c(C)cc2[N+](=O)[O-])o1 [C646] | 7.8 | 6.1 | 4.72 | inhibited RNA duplex formation almost completely | – | pEC50 [1]: 4.80; Toxicity in murine models of influenza infection [2]: no associated toxicity; Viral replication in murine models of influenza infection [2]: significant reduction in viral replication |
| Cc1ccc(C(=O)Nc2ccc(S(=O)(=O)O)c3cc(S(=O)(=O)O)cc(S(=O)(=O)O)c23)cc1NC(=O)c1cccc(NC(=O)Nc2cccc(C(=O)Nc3cc(C(=O)Nc4ccc(S(=O)(=O)O)c5cc(S(=O)(=O)O)cc(S(=O)(=O)O)c45)ccc3C)c2)c1 [Suramin] | 0.78 | 0.43 | – | inhibited RNA duplex formation almost completely | – | pEC50 [6]: 5.00 |
| CC(C)C(C(=O)O)N1C(=O)/C(=C/c2ccc(Br)cc2)SC1=S (stereo not shown) [BH3I-1] | 13 | 14 | 4.11 | inhibited RNA duplex formation almost completely | – | – |
| NC(=O)c1cc[n+](CC2=C(C(=O)O)N3C(=O)[C@@H](NC(=O)[C@@H](c4ccccc4)S(=O)(=O)[O-])[C@H]3SC2)cc1 [Cefsulodin] | 49 | 50 | – | partial inhibition | 3.97 | – |
| Nc1c(C(=O)O)c2nc3c(C(=O)O)cccc3oc-2cc1=O [Cinnabarinic Acid] | > 100 | > 100 | – | – | – | – |
| CCC(CC)COC(=O)[C@H](C)N[P@](=O)(OC[C@H]1O[C@@](C#N)(c2ccc3c(N)ncnn23)[C@H](O)[C@@H]1O)Oc1ccccc1 [Remdesivir] | – | – | 5.74 | – | – | inhibition at 0.5 µM ([4]; Severe acute respiratory syndrome coronavirus 2, Vero C1008, 0.5 µM, Vero E6 cells, read-out: Inhibition of viral infection as a single agent): < 10% |
| OC[C@@H](O)[C@H]1NC[C@@H](O)[C@H]1O [1,4-Dideoxy-1,4-imino-D-mannitol] | – | – | – | – | – | IC50 (µM) No detergent ([3]; 150 nM RdRp, absence of Triton X-100): no cl ear i nhi bi ti; IC50 (µM) + 0.01% Triton X-100 ([3]; 150 nM RdRp, presence of 0.01% Triton X-100): no cl ear i nhi bi ti |
| O=C(O)c1ccc(-c2c[nH]c3ncc(-c4ccccc4)cc23)cc1C1CCCC1 [GSK-650394] | 29 | 31 | – | partial inhibition | 5.12 | Concentration at which cytotoxicity was seen [7]: 300 µM |
| O=C1C(=O)N(Cc2ccc(Cl)c(Cl)c2)c2ccccc21 [MDK-83190] | – | – | – | – | 4.09 | – |
